# Source: patent publication US10526316B2, “Quinoxaline and pyridopyrazine derivatives as PI3Kβ inhibitors” (Janssen Pharmaceutica NV, priority 2015, dated 2020)
# Like-named read-outs stand apart in the source and are kept apart here.
# Legend:
# [1] = test system: Akt phosphorylated at Thr308 in PC-3 cells; test: Cellular assay: phosphorylation of Akt at Thr308 in PC-3 cells (MSD ELISA); assay type: cell-based; details: PC-3 cells, 60 min compound incubation, MSD ELISA, read-out: IC50 pAkt_Thr308
# Summary of the method: (§1)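 PC-3 cells were exposed to compound or 0.3% DMSO for 60 min at 37° C, 5% CO2, then lysed in ice-cold buffer. Phospho-Akt was captured on site-specific antibody-coated plates and detected with Sulfo-tag anti-total Akt by electrochemiluminescence. IC50 values came from five-concentration response curves.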
# [2] = target: T1, PI3Kβ (Homo sapiens, UniProt P42338); test: Enzyme binding assay (KINOMEscan, DiscoveRx); details: PIK3Cβ_h, read-out: Kd PIK3Cβ_h
# T1 construct: purchased DiscoveRx Corporation, San Diego (contract service, KINOMEscan)
# Summary of the method: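 Using the KINOMEscan format, the enzyme binding affinity of each compound was determined. Each value is the inhibitor binding constant, Kd (nM).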
# [3] = target: T2, PI3Kδ (Homo sapiens, UniProt O00329); test: Enzyme binding assay (KINOMEscan, DiscoveRx); details: PIK3Cδ_h
# T2 construct: purchased DiscoveRx Corporation, San Diego (contract service, KINOMEscan)
# T2 sequence (O00329 1-1044): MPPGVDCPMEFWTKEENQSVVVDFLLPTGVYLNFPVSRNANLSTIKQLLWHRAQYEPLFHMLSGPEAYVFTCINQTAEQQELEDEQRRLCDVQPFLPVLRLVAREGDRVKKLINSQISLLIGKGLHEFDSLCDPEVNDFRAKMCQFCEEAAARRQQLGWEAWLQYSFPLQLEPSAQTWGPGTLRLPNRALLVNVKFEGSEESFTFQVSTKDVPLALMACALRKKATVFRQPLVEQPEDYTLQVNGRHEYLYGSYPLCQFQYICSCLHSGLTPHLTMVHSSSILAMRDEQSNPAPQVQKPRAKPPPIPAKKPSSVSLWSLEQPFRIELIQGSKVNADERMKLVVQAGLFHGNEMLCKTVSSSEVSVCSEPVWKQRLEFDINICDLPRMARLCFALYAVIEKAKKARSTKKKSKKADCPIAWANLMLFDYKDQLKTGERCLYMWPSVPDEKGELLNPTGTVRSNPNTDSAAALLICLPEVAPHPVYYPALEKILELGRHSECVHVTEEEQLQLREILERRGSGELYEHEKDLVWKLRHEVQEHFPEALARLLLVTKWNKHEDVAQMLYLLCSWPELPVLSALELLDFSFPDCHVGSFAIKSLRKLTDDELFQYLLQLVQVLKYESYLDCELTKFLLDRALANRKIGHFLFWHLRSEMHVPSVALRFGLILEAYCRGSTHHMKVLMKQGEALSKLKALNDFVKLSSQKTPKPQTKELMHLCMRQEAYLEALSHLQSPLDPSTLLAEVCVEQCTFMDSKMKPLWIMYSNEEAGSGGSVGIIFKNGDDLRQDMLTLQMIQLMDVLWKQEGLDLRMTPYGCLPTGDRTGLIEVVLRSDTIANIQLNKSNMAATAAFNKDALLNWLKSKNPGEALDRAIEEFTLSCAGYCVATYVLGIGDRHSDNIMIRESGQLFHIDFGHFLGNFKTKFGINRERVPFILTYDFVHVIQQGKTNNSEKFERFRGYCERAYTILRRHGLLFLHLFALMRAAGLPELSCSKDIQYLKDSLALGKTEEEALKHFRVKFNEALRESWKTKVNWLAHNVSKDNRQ
# Summary of the method: (§2)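 Uses KINOMEscan technology to determine binding affinity toward the kinase enzymes.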
# [4] = test system: Akt phosphorylated at Ser473 in PC-3 cells; test: Cellular assay: phosphorylation of Akt at Ser473 in PC-3 cells (MSD ELISA); assay type: cell-based; details: PC-3 cells, 60 min compound incubation, MSD ELISA, read-out: IC50 pAkt_S473
# Summary of the method: as §1
# [5] = target: T3, kinase enzymes (Homo sapiens, UniProt P42345); test: Enzyme binding assay (KINOMEscan, DiscoveRx), further kinases of Table A; details: MTOR_h
# T3 construct: purchased DiscoveRx Corporation, San Diego (contract service, KINOMEscan)
# Summary of the method: as §2
# [6] = target: T4, kinase enzymes (Homo sapiens, UniProt P48736); test: as above; details: PIK3Cγ_h
# T4 construct: purchased DiscoveRx Corporation, San Diego (contract service, KINOMEscan)
# Summary of the method: as §2
# [7] = target: T5, kinase enzymes (Homo sapiens, UniProt P42336); test: as above; details: PIK3Cα_h
# T5 construct: purchased DiscoveRx Corporation, San Diego (contract service, KINOMEscan)
# Summary of the method: as §2
# T4 sequence (P48736 whole entry): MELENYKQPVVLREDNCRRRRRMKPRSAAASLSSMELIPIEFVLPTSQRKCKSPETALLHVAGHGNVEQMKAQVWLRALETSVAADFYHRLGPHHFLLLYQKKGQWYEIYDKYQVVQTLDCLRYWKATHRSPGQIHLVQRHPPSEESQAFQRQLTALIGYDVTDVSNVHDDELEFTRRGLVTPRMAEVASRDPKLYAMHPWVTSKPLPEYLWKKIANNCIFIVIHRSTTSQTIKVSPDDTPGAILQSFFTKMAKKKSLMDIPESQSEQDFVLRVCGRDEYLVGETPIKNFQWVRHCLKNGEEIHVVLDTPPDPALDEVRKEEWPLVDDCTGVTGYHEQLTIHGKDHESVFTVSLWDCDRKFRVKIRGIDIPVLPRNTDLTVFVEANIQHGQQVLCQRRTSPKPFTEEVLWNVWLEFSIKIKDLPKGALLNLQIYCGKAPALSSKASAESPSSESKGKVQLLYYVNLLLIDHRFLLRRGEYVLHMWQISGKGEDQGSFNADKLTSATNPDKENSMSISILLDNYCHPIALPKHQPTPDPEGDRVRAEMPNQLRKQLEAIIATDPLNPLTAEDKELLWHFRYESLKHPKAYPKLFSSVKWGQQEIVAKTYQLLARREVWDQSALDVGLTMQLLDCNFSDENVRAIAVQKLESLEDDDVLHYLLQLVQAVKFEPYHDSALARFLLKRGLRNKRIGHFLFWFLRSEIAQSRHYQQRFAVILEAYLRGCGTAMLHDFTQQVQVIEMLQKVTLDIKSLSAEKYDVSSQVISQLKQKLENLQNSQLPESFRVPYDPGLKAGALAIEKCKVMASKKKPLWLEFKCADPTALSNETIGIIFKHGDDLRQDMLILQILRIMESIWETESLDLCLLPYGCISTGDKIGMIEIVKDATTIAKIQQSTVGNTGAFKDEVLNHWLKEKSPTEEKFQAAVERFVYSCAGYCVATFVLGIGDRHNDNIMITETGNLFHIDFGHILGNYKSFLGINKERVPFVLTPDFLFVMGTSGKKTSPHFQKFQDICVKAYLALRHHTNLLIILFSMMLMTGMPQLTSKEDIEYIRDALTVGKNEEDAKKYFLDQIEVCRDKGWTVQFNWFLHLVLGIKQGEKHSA
# T1 sequence (P42338 whole entry): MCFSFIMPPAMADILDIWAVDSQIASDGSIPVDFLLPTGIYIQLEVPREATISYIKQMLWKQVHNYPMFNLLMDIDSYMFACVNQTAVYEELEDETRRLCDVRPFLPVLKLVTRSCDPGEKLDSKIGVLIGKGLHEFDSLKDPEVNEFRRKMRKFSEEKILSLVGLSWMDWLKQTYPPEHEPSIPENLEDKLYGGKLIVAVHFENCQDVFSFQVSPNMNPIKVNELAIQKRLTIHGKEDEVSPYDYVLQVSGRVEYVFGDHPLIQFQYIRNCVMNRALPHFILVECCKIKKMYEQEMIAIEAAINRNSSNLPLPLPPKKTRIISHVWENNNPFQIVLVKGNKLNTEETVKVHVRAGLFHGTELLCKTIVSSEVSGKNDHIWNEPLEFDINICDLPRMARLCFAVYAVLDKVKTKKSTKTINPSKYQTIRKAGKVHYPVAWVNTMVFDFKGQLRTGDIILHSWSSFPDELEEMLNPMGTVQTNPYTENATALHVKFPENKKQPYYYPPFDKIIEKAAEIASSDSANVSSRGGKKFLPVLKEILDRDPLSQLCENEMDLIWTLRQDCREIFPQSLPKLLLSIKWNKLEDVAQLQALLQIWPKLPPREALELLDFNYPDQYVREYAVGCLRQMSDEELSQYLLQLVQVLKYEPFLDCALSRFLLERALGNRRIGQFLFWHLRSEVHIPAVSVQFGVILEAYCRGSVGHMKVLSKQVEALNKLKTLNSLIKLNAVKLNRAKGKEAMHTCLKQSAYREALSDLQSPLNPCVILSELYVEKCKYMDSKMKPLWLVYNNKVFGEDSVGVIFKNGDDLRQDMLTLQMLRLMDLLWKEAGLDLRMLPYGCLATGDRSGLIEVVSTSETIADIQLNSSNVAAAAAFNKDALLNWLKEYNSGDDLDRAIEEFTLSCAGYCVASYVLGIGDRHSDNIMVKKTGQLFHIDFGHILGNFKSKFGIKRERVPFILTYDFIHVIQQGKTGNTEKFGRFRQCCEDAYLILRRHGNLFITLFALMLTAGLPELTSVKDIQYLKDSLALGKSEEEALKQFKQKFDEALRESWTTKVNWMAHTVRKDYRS
# T5 sequence (P42336 whole entry): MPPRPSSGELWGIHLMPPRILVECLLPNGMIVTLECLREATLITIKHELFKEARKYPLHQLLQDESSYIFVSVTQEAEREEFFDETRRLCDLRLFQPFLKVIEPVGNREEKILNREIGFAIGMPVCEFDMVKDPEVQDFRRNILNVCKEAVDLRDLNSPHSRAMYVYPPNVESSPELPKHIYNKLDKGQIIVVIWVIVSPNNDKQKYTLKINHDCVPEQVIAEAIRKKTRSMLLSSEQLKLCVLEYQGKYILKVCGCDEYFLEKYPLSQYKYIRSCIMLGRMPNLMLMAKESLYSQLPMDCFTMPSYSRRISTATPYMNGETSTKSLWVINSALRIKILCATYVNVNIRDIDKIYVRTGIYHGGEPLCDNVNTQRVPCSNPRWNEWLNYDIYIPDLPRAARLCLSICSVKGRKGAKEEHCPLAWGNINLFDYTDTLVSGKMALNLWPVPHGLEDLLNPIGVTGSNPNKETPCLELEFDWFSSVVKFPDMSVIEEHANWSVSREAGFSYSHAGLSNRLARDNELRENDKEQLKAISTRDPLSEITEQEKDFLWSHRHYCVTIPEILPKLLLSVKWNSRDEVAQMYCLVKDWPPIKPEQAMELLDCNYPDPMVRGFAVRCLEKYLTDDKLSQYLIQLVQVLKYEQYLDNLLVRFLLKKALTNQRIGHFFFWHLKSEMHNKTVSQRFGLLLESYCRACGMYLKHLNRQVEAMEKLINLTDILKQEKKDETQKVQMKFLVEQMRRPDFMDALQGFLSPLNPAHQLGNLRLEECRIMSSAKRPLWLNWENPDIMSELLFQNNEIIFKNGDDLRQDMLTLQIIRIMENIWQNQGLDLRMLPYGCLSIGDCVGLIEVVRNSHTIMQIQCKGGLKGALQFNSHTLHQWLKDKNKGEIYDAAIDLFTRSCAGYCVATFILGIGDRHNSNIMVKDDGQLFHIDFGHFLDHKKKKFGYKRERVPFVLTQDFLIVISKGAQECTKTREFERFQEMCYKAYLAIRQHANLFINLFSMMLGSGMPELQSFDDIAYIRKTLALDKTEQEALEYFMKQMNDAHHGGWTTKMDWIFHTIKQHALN
Structure (SMILES),IC50 [1],Kd [2],Kd [3],IC50 [4],Kd [5],Kd [6],Kd [7],melting point,"IC50 ([1]; Homo sapiens, PC-3, 1 h)","IC50 ([4]; Homo sapiens, PC-3, 1 h)"
"CC(Nc1cc(F)cc(F)c1)c1cc(CN2CC3(C2)CS(=O)(=O)C3)cc2ncc(N3CCOCC3)nc12 (single isomer, unassigned) [Compound 160]",0.023 µM,0.002 µM,0.575 µM,0.058 µM,19.5 µM,9.77 µM,0.813 µM,229 °C,–,–
"CC(Nc1cc(F)cc(F)c1)c1cc(CNCC(F)(F)F)cc2ncc(N3CCOCC3)nc12 (single isomer, unassigned) [Compound 162]",0.091 µM,0.009 µM,1.23 µM,0.209 µM,> 30.2 µM,24.5 µM,3.98 µM,80 °C,–,–
"CC(Nc1cc(F)cc(F)c1)c1cc(C(=O)N2CCN(CC(F)(F)F)CC2)cc2ncc(N3CCOCC3)nc12 (single isomer, unassigned) [Compound 172]",–,1.26 µM,> 30.2 µM,–,> 30.2 µM,> 30.2 µM,> 30.2 µM,130 °C,> 0.513 µM,> 0.513 µM
"CC(Nc1cc(F)cc(F)c1)c1cc(C(=O)NCCO)cc2ncc(N3CCOCC3)nc12 (single isomer, unassigned) [Compound 188]",0.015 µM,0.001 µM,0.182 µM,0.022 µM,16.2 µM,2.29 µM,0.851 µM,80 °C,–,–
"CC(Nc1cc(F)cc(F)c1)c1cc(CN2CCOCC23COC3)cc2ncc(N3CCOCC3)nc12 (single isomer, unassigned) [Compound 192]",> 0.513 µM,9.12 µM,> 30.2 µM,> 0.513 µM,> 30.2 µM,> 30.2 µM,> 30.2 µM,229 °C,–,–
"CC(Nc1cc(F)cc(F)c1)c1cc(C(=O)NC[C@@H](C)O)cc2ncc(N3CCOCC3)nc12 (single isomer, unassigned) [Compound 201]",0.026 µM,0.002 µM,0.71 µM,0.042 µM,16.5 µM,4.45 µM,1.46 µM,70 °C,–,–
"COCCNC(=O)c1cc(C(C)Nc2cc(F)cc(F)c2)c2nc(N3CCOCC3)cnc2c1 (single isomer, unassigned) [Compound 203]",0.044 µM,0.005 µM,0.912 µM,0.098 µM,21.4 µM,6.61 µM,1.66 µM,118 °C,–,–
"COCCNC(=O)c1cc(C(C)Nc2cc(F)cc(F)c2)c2nc(N3CCOCC3)cnc2c1 (single isomer, unassigned) [Compound 204]",> 0.513 µM,1.07 µM,> 30.2 µM,> 0.513 µM,> 30.2 µM,14.5 µM,> 30.2 µM,80 °C,–,–
"CC(Nc1cc(F)cc(F)c1)c1cc(CN2C[C@@H](C)O[C@@H](C)C2)cc2ncc(N3CCOCC3)nc12 (single isomer, unassigned) [Compound 206]",> 0.513 µM,7.08 µM,> 30.2 µM,> 0.513 µM,> 30.2 µM,> 30.2 µM,> 30.2 µM,80 °C,–,–
"CC(Nc1cc(F)cc(F)c1)c1cc(CN2CCn3nccc3C2)cc2ncc(N3CCOCC3)nc12 (single isomer, unassigned) [Compound 210]",0.151 µM,0.012 µM,1.02 µM,0.245 µM,> 30.2 µM,> 30.2 µM,3.16 µM,80 °C,–,–
"CC(C)NCCNC(=O)c1cc(C(C)Nc2cc(F)cc(F)c2)c2nc(N3CCOCC3)cnc2c1 (single isomer, unassigned) [Compound 211]",0.022 µM,0.001 µM,0.19 µM,0.036 µM,20.2 µM,3.6 µM,3.37 µM,206 °C,–,–
"CC(Nc1cc(F)cc(F)c1)c1cc(CN2CCn3nccc3C2)cc2ncc(N3CCOCC3)nc12 (single isomer, unassigned) [Compound 222]",> 0.513 µM,0.759 µM,> 30.2 µM,> 0.513 µM,> 30.2 µM,> 30.2 µM,> 30.2 µM,163 °C,–,–
"CC(Nc1cc(F)cc(F)c1)c1cc(C=NO)cc2ncc(N3CCOCC3)nc12 (single isomer, unassigned) [Compound 225]",–,0.006 µM,0.537 µM,–,> 30.2 µM,2.51 µM,4.68 µM,80 °C,0.087 µM,0.102 µM

# Further compounds by falling Kd [2], results first:
IC50 [1],Kd [2],Kd [3],IC50 [4],Kd [5],Kd [6],Kd [7],melting point,"IC50 ([1]; Homo sapiens, PC-3, 1 h)","IC50 ([4]; Homo sapiens, PC-3, 1 h)",Structure (SMILES)
> 0.513 µM,1.2 µM,26.3 µM,> 0.513 µM,> 30.2 µM,> 30.2 µM,> 30.2 µM,80 °C,–,–,"CNCCOCCN(C)C(=O)c1cc(C(C)Nc2cc(F)cc(F)c2)c2nc(N3CCOCC3)cnc2c1 (single isomer, unassigned) [Compound 174]"
> 0.513 µM,0.776 µM,> 30.2 µM,> 0.513 µM,> 30.2 µM,> 30.2 µM,> 30.2 µM,228 °C,–,–,"CC(Nc1cc(F)cc(F)c1)c1cc(CN2CC3(C2)CS(=O)(=O)C3)cc2ncc(N3CCOCC3)nc12 (single isomer, unassigned) [Compound 161]"
–,0.117 µM,20.4 µM,~0.447 µM,> 30.2 µM,17.8 µM,5.01 µM,134 °C,~0.398 µM,–,"CC(Nc1cc(F)cc(F)c1)c1cc(C(=O)N(C)CCN(C)C)cc2ncc(N3CCOCC3)nc12 (single isomer, unassigned) [Compound 181]"
–,0.068 µM,5.49 µM,–,28.8 µM,11.7 µM,4.9 µM,140 °C,0.309 µM,> 0.513 µM,"CC(Oc1cc(F)cc(F)c1)c1cc(C(=O)NCCO)cc2ncc(N3CCOCC3)nc12 (single isomer, unassigned) [Compound 199]"
0.328 µM,0.012 µM,3.29 µM,0.398 µM,13.8 µM,5.07 µM,7.09 µM,204 °C,–,–,"CC(C)NCCNC(=O)c1cc(C(C)Nc2cc(F)cc(F)c2)c2nc(N3CCOCC3)cnc2c1 (single isomer, unassigned) [Compound 212]"
0.025 µM,0.002 µM,0.269 µM,0.033 µM,7.76 µM,3.24 µM,2.09 µM,80 °C,–,–,"CC(Nc1cc(F)c(F)c(F)c1)c1cc(C(=O)NCCO)cc2ncc(N3CCOCC3)nc12 (single isomer, unassigned) [Compound 213]"
0.011 µM,0.0003 µM,0.182 µM,0.045 µM,14.1 µM,5.49 µM,1.78 µM,80 °C,–,–,"CNCCNC(=O)c1cc(C(C)Oc2cc(F)cc(F)c2)c2nc(N3CCOCC3)cnc2c1 (single isomer, unassigned) [Compound 165]"
